# Laboratory results reported in patent publication US20220177538A1, “CO-AGONISTS AT GLP-1 AND GIP RECEPTORS SUITABLE FOR ORAL DELIVERY” (Novo Nordisk A/S, priority 2020, published 2022).
# Starred links: 1 amine or outer side, 2 acyl side, 3 side chain; linkers in the order of their positions; H or OH if unused. Non-standard residues stand in square brackets, D forms with d. Residues, ends and D or L forms follow the SMILES beside them. Groups on a side chain read outwards from the residue. *: point of attachment. C18 diacid = O=C(O)CCCCCCCCCCCCCCCCC(=O)*; γGlu = O=C(O)[C@H](CCC(=O)[*:2])N[*:1]; εLys = N[C@@H](CCCCN[*:1])C(=O)[*:2]; AEEA = NCCOCCOCC(=O)O; Aib = CC(C)(N)C(=O)O
# Test: Pharmacokinetic study in dogs after oral dosing of tablets with SNAC
# Assay type: in vivo, Beagle dogs
# Protocol: The purpose of this example is to determine the half-life and plasma exposure in vivo of the compounds of the present invention after p.o. administration to beagle dogs, i.e. the terminal half-life and concentration of test substance that reaches circulation with time. This is done in a pharmacokinetic (PK) study, where these parameters of the compound in question are determined. By terminal half-life is generally meant the period of time it takes to halve a certain plasma concentration, measured after the initial distribution phase.
# The amount of SNAC in the tablet composition was 100-300 mg, the amount of magnesium stearate in the tablet composition was 7.7 mg, and the target amount of each test substance in the tablet composition was 3-4 mg.
# Male beagle dogs, 1-7 years of age and weighing 9-17 kg during the study period, were included in the study. The dogs were dosed in a fasting state. The dogs were group housed in pens (12 hours light: 12 hours dark), and fed individually and restrictedly once daily with Royal Canin Medium Adult dog food (Royal Canin Products, China Branch, or Brogaarden A/S, Denmark). The dogs were used for repeated PK studies with a suitable wash-out period between successive dosing. An appropriate acclimatization period was given prior to initiation of the first PK study. All handling, dosing, and blood sampling of the animals were performed by trained and skilled staff. Before the studies, the dogs were fasted overnight and from 0 to 4 hours after dosing. The dogs were restricted to water 1 hour before dosing until 4 hours after dosing, but otherwise had ad libitum access to water during the whole period.
# The compositions were administered by a single oral dosing to the dogs in groups of 6-8 dogs. […] The mouth was then closed, and 10 mL of tap water was given by syringe or gavage to facilitate swallowing of the tablet.
# One blood sample was drawn before dosing, and additional samples were drawn at predefined time points after dosing for up to 240 hours, such as up to 10 hours, to adequately cover the full plasma concentration-time absorption profile of the test substance. For each blood sample time point, approximately 0.8 mL of whole blood was collected in a 1.5 mL EDTA-coated tube, which was gently turned to mix the sample with EDTA. Blood samples were collected in EDTA buffer (8 mM) and then centrifuged at 4° C. 2000 g for 10 minutes. Plasma was pipetted into Micronic tubes on dry ice, and kept at −20° C. or lower until analysis. Blood samples were taken as appropriate, for example from a venflon in the cephalic vein in the front leg for the first 2 hours and then with syringe from the jugular vein for the rest of the time points. The first few drops were allowed to drain from the venflon to avoid heparin saline from the venflon in the sample.
# All blood samples were collected into test tubes containing EDTA for stabilisation and kept on ice until centrifugation. Plasma was separated from whole blood by centrifugation and the plasma was stored at −20° C. or lower until analysis.
# The plasma was analysed for test substance using LC-MS (Liquid Chromatography-Mass Spectrometry) as known to the person skilled in the art. […] RP-HPLC separation was achieved using a linear gradient of 1:1 acetonitrile/methanol in 1% aqueous formic acid using either: a Phenomenex Onyx Monolithic C18 column (50×2.0 mm) and a flow rate of 0.8 mL/min at 30° C.; or an Agilent Poroshell 120 SB-C18 column (50×2.1 mm, 2.7 μm) at a flow rate of 0.4 mL/min at 60° C. The mass spectrometer was operated in either positive ionization SIM mode or positive ionization PRM mode.
# For each individual animal, a plasma concentration-time profile was analysed by a non-compartmental model in Pharsight Phoenix WinNonLin ver.
# [1] = oral tablet, SNAC 100 mg, test substance 3 mg, Beagle dogs, arithmetic mean
SMILES,"AUC/Dose (dog, in vivo, po)","Cmax/Dose (dog, in vivo, po)",also measured
CC[C@H](C)[C@H](NC(=O)[C@H](Cc1ccccc1)NC(=O)[C@H](CCC(=O)O)NC(=O)[C@H](CCCNC(=N)N)NC(=O)[C@H](C)NC(=O)[C@H](C)NC(=O)[C@H](CCC(N)=O)NC(=O)[C@H](CCCCNC(=O)[C@@H](N)CCCCNC(=O)[C@@H](N)CCCCNC(=O)CC[C@H](NC(=O)CCCCCCCCCCCCCCCCC(=O)O)C(=O)O)NC(=O)[C@H](CCC(=O)O)NC(=O)[C@H](CC(C)C)NC(=O)[C@H](Cc1ccc(O)cc1)NC(=O)[C@@H](NC(=O)[C@H](CO)NC(=O)[C@H](Cc1ccc(O)cc1)NC(=O)[C@H](CC(=O)O)NC(=O)[C@H](CO)NC(=O)[C@@H](NC(=O)[C@H](Cc1ccccc1)NC(=O)[C@@H](NC(=O)CNC(=O)[C@H](CCC(=O)O)NC(=O)C(C)(C)NC(=O)[C@@H](N)Cc1ccc(O)cc1)[C@@H](C)O)[C@@H](C)O)[C@@H](C)CC)C(=O)N[C@@H](CCC(=O)O)C(=O)N[C@@H](Cc1c[nH]c2ccccc12)C(=O)N[C@@H](CC(C)C)C(=O)N[C@@H](CC(C)C)C(=O)N[C@@H](C)C(=O)NCC(=O)NCC(=O)N1CCC[C@H]1C(=O)N[C@@H](CO)C(=O)N[C@@H](CO)C(=O)NCC(=O)N[C@@H](C)C(=O)N1CCC[C@H]1C(=O)N1CCC[C@H]1C(=O)N1CCC[C@H]1C(=O)N[C@@H](CO)C(=O)O [Compound 9] (H-Y[Aib]EGTFTSDYSIYLEK([εLys-εLys-γGlu-C18 diacid])QAAREFIEWLLAGGPSSGAPPPS-OH),12.1 kg·h/L,0.24 kg/L,
CC[C@H](C)[C@H](NC(=O)[C@H](Cc1ccccc1)NC(=O)[C@H](CCC(=O)O)NC(=O)[C@H](CCCNC(=N)N)NC(=O)[C@H](C)NC(=O)[C@H](C)NC(=O)[C@H](CCC(N)=O)NC(=O)[C@H](CCCCNC(=O)COCCOCCNC(=O)COCCOCCNC(=O)CC[C@H](NC(=O)CCCCCCCCCCCCCCCCC(=O)O)C(=O)O)NC(=O)[C@H](CCC(=O)O)NC(=O)[C@H](CC(C)C)NC(=O)[C@H](Cc1ccc(O)cc1)NC(=O)[C@@H](NC(=O)[C@H](CO)NC(=O)[C@H](Cc1ccc(O)cc1)NC(=O)[C@H](CC(=O)O)NC(=O)[C@H](CO)NC(=O)[C@@H](NC(=O)[C@H](Cc1ccccc1)NC(=O)[C@@H](NC(=O)CNC(=O)[C@H](CCC(=O)O)NC(=O)C(C)(C)NC(=O)[C@@H](N)Cc1ccc(O)cc1)[C@@H](C)O)[C@@H](C)O)[C@@H](C)CC)C(=O)N[C@@H](CCC(=O)O)C(=O)N[C@@H](Cc1c[nH]c2ccccc12)C(=O)N[C@@H](CC(C)C)C(=O)N[C@@H](CC(C)C)C(=O)N[C@@H](C)C(=O)NCC(=O)NCC(=O)N1CCC[C@H]1C(=O)N[C@@H](CO)C(=O)N[C@@H](CO)C(=O)NCC(=O)N[C@@H](C)C(=O)N1CCC[C@H]1C(=O)N1CCC[C@H]1C(=O)N1CCC[C@H]1C(=O)N[C@@H](CO)C(=O)O [Compound 10] (H-Y[Aib]EGTFTSDYSIYLEK([AEEA-AEEA-γGlu-C18 diacid])QAAREFIEWLLAGGPSSGAPPPS-OH),8.4 kg·h/L,0.20 kg/L,
CC[C@H](C)[C@H](NC(=O)[C@H](Cc1ccccc1)NC(=O)[C@H](CCC(=O)O)NC(=O)[C@H](CCCNC(=N)N)NC(=O)[C@H](C)NC(=O)[C@H](C)NC(=O)[C@H](CCC(N)=O)NC(=O)[C@H](CCCCNC(=O)[C@@H](N)CCCCNC(=O)[C@@H](N)CCCCNC(=O)CC[C@H](NC(=O)CCCCCCCCCCCCCCCCC(=O)O)C(=O)O)NC(=O)[C@H](CCC(=O)O)NC(=O)[C@H](CC(C)C)NC(=O)[C@H](Cc1ccc(O)cc1)NC(=O)[C@@H](NC(=O)[C@H](CO)NC(=O)[C@H](Cc1ccc(O)cc1)NC(=O)[C@H](CC(=O)O)NC(=O)[C@H](CO)NC(=O)[C@@H](NC(=O)[C@H](Cc1ccccc1)NC(=O)[C@@H](NC(=O)CNC(=O)[C@H](CCC(=O)O)NC(=O)C(C)(C)NC(=O)[C@@H](N)Cc1ccc(O)cc1)[C@@H](C)O)[C@@H](C)O)[C@@H](C)CC)C(=O)N[C@@H](CC(N)=O)C(=O)N[C@@H](Cc1c[nH]c2ccccc12)C(=O)N[C@@H](CC(C)C)C(=O)N[C@@H](CC(C)C)C(=O)N[C@@H](C)C(=O)NCC(=O)NCC(=O)N1CCC[C@H]1C(=O)N[C@@H](CO)C(=O)N[C@@H](CO)C(=O)NCC(=O)N[C@@H](C)C(=O)N1CCC[C@H]1C(=O)N1CCC[C@H]1C(=O)N1CCC[C@H]1C(=O)N[C@@H](CO)C(=O)O [Compound 11] (H-Y[Aib]EGTFTSDYSIYLEK([εLys-εLys-γGlu-C18 diacid])QAAREFINWLLAGGPSSGAPPPS-OH),7.1 kg·h/L,0.19 kg/L,
CC[C@H](C)[C@H](NC(=O)[C@H](Cc1ccccc1)NC(=O)[C@H](CCC(=O)O)NC(=O)[C@H](CCCNC(=N)N)NC(=O)[C@H](C)NC(=O)[C@H](C)NC(=O)[C@H](CCC(N)=O)NC(=O)[C@H](CCCCNC(=O)[C@@H](N)CCCCNC(=O)[C@@H](N)CCCCNC(=O)CC[C@H](NC(=O)CCCCCCCCCCCCCCCCC(=O)O)C(=O)O)NC(=O)[C@H](CCC(=O)O)NC(=O)[C@H](CC(C)C)NC(=O)[C@H](Cc1ccc(O)cc1)NC(=O)[C@@H](NC(=O)[C@H](CO)NC(=O)[C@H](Cc1ccc(O)cc1)NC(=O)[C@H](CC(=O)O)NC(=O)[C@H](CO)NC(=O)[C@@H](NC(=O)[C@H](Cc1ccccc1)NC(=O)[C@@H](NC(=O)CNC(=O)[C@H](CCC(=O)O)NC(=O)C(C)(C)NC(=O)[C@@H](N)Cc1ccc(O)cc1)[C@@H](C)O)[C@@H](C)O)[C@@H](C)CC)C(=O)N[C@@H](CCC(=O)O)C(=O)N[C@@H](Cc1c[nH]c2ccccc12)C(=O)N[C@@H](CC(C)C)C(=O)N[C@@H](CC(C)C)C(=O)N[C@@H](CCCNC(=N)N)C(=O)NCC(=O)NCC(=O)N1CCC[C@H]1C(=O)N[C@@H](CCC(=O)O)C(=O)N[C@@H](CO)C(=O)NCC(=O)N[C@@H](C)C(=O)N1CCC[C@H]1C(=O)N1CCC[C@H]1C(=O)N1CCC[C@H]1C(=O)N[C@@H](CO)C(=O)O [Compound 13] (H-Y[Aib]EGTFTSDYSIYLEK([εLys-εLys-γGlu-C18 diacid])QAAREFIEWLLRGGPESGAPPPS-OH),,,AUC/Dose [1]: 14.8 kg·h/L; Cmax/Dose [1]: 0.29 kg/L
CC[C@H](C)[C@H](NC(=O)[C@H](Cc1ccccc1)NC(=O)[C@H](CCC(=O)O)NC(=O)[C@H](CCCNC(=N)N)NC(=O)[C@H](C)NC(=O)[C@H](C)NC(=O)[C@H](CCC(N)=O)NC(=O)[C@H](CCCCNC(=O)[C@@H](N)CCCCNC(=O)[C@@H](N)CCCCNC(=O)CC[C@H](NC(=O)CCCCCCCCCCCCCCCCC(=O)O)C(=O)O)NC(=O)[C@H](CCC(=O)O)NC(=O)[C@H](CC(C)C)NC(=O)[C@H](CC(C)C)NC(=O)[C@@H](NC(=O)[C@H](CO)NC(=O)[C@H](Cc1ccc(O)cc1)NC(=O)[C@H](CC(=O)O)NC(=O)[C@H](CO)NC(=O)[C@@H](NC(=O)[C@H](Cc1ccccc1)NC(=O)[C@@H](NC(=O)CNC(=O)[C@H](CCC(=O)O)NC(=O)C(C)(C)NC(=O)[C@@H](N)Cc1ccc(O)cc1)[C@@H](C)O)[C@@H](C)O)[C@@H](C)CC)C(=O)N[C@@H](CC(N)=O)C(=O)N[C@@H](Cc1c[nH]c2ccccc12)C(=O)N[C@@H](CC(C)C)C(=O)N[C@@H](CC(C)C)C(=O)N[C@@H](C)C(=O)NCC(=O)NCC(=O)N1CCC[C@H]1C(=O)N[C@@H](CO)C(=O)N[C@@H](CO)C(=O)NCC(=O)N[C@@H](C)C(=O)N1CCC[C@H]1C(=O)N1CCC[C@H]1C(=O)N1CCC[C@H]1C(=O)N[C@@H](CO)C(=O)O [Compound 15] (H-Y[Aib]EGTFTSDYSILLEK([εLys-εLys-γGlu-C18 diacid])QAAREFINWLLAGGPSSGAPPPS-OH),,,"Tmax (dog, in vivo, po): 2.0 h; t1/2 (dog, in vivo, po): 46 h"
